Usually IC50 stands for the concentration at which inhibition is half-maximal. A low value points to inhibition by little substance. Usually Dmax stands for the greatest extent of degradation seen. Low readings indicate shallow degradation, high ones deep degradation. Usually DC50 stands for the concentration giving 50% degradation.

Data on three molecules can be found in patent US20260226086A1, “COMPOUNDS AND COMPOSITIONS AS STAT3 DEGRADERS AND USES THEREOF” (REGENTS OF THE UNIVERSITY OF MICHIGAN, priority 2023, published 2026).

Common to all, as to type: cell-based
The test system of assay [1] is SU-DHL-1 cells. Kind of assay: CellTiter-Glo 2.0 cell viability assay, SU-DHL-1. Particulars: Homo sapiens, 96 h, 4 days. A digest of the protocol: (§1)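 1000 cells per well exposed to serially diluted compounds for 4 days at 37 °C, 5% CO2. Viability measured by CellTiter-Glo 2.0 luminescence versus untreated cells; IC50 from four-parameter nonlinear fit of triplicate means.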
(In general: In ATP-based viability assays light output follows the ATP content of the culture.)

The subject of assay [2] is SUP-M2 cells. Kind of assay: CellTiter-Glo 2.0 cell viability assay, SUP-M2. Particulars: SUP-M2, 96 h, 4 days. A digest of the protocol: as §1
For assay [3], the target named is T1, STAT3 (Homo sapiens, UniProt P40763).
T1 construct: This cell line is a clone created by using CRISPR-Cas9 to fuse HiBiT to the 3′ end of STAT3 in HeLa cells; host or cells: STAT3-HiBiT KI HeLa cell line (CRISPR-Cas9 knock-in clone)
In words: HiBiT assay, STAT3 degradation in STAT3-HiBiT KI HeLa cells. Conditions: 24 h; for DC50: read-out: STAT3 Degradation (HeLa 24 h HiBit) DC50. A digest of the protocol: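 HeLa cells with CRISPR knock-in of HiBiT at the STAT3 C-terminus, 20000 cells/well, treated with serial compound dilutions for 24 h at 37 °C, 5% CO2. Remaining STAT3 read by Nano-Glo HiBiT lytic luminescence versus untreated cells; IC50 from four-parameter nonlinear fit of triplicate means.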
In general terms: The HiBiT peptide binds its large partner to form an active luciferase.

T1 sequence (P40763 whole entry): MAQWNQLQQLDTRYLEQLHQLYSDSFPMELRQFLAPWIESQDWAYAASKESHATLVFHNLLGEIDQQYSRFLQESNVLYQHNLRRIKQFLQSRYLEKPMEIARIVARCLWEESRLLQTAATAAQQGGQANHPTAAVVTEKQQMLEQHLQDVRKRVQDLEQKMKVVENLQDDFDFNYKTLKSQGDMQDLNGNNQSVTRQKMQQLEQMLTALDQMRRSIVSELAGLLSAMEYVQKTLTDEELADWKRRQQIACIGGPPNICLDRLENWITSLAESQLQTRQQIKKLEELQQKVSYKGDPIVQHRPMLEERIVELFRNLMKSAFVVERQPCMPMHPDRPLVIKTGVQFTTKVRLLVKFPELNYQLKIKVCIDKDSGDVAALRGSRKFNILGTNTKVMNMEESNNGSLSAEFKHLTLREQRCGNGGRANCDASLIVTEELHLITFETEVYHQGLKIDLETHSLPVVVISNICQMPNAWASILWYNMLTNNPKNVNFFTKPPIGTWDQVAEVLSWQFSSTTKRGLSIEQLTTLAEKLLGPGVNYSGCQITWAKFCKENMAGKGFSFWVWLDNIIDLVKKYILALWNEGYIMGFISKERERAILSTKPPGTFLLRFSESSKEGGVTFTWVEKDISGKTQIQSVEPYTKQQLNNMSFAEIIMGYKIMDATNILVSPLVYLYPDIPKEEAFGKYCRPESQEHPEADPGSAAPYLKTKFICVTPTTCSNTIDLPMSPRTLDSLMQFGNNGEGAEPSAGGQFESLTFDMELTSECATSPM

In assay [1], `CCS(=O)(=O)c1ccc(CNC(=O)[C@H](CCC(N)=O)NC(=O)[C@@H]2CC[C@@H]3CCN(C(=O)CCCCc4cn([C@H](C(=O)N5C[C@H](O)C[C@H]5C(=O)N[C@@H](CN5CCOCC5)c5ccc(-c6scnc6C)cc5)C(C)(C)C)nn4)C[C@H](NC(=O)c4cc5cc(C(=O)P(=O)(O)O)ccc5[nH]4)C(=O)N32)cc1` [Compound 16, (2-(((5S,8S,10aR)-8-(((S)-5-amino-1-((4-(ethylsulfonyl)benzyl)amino)-1,5-dioxopentan-2-yl)carbamoyl)-3-(5-(1-((S)-1-((2S,4R)-4-hydroxy-2-(((R)-1-(4-(4-methylthiazol-5-yl)phenyl)-2-morpho-linoethyl)carbamoyl)pyrrolidin-1-yl)-3,3-dimethyl-1-oxobutan-2-yl)-1H-1,2,3-triazol-4-yl)pentanoyl)-6-oxodecahydropyrrolo[1,2-a][1,5]diazocin-5-yl)carbamoyl)-1H-indole-5-carbonyl)phosphonic acid] yielded an IC50 of 100 to 1000 nM. Also, in assay [2], the IC50 lay within 100 to 1000 nM. For the same molecule, in assay [3], the Dmax at 1 µM is greater than 80% and the DC50 is 10 to 100 nM.
`COCCOCCOCCOCCC(=O)N1CC[C@H]2CC[C@@H](C(=O)N[C@@H](CCC(N)=O)COc3cccc(CCCc4cn([C@H](C(=O)N5C[C@H](O)C[C@H]5C(=O)N[C@@H](C)c5ccc(-c6scnc6C)cc5)C(C)(C)C)nn4)c3Cl)N2C(=O)[C@@H](NC(=O)c2cc3cc(C(=O)P(=O)(O)O)ccc3[nH]2)C1` [Compound 30, (2-(((5S,8S,10aR)-8-(((S)-5-amino-1-(2-chloro-3-(3-(1-((S)-1-((2S,4R)-4-hydroxy-2-(((S)-1-(4-(4-methylthiazol-5-yl)phenyl)ethyl)carbamoyl)pyrrolidin-1-yl)-3,3-dimethyl-1-oxobutan-2-yl)-1H-1,2,3-triazol-4-yl)propyl)phenoxy)-5-oxopentan-2-yl)carbamoyl)-6-oxo-3-(2,5,8,11-tetraoxatetradecan-14-oyl)decahydropyrrolo[1,2-a][1,5]diazocin-5-yl)carbamoyl)-1H-indole-5-carbonyl)phosphonic acid]: the IC50 in assay [1] was less than 10 nM. Moreover, the IC50 in assay [2] was 10 to 100 nM. Also, in assay [3], the Dmax at 1 µM is greater than 80% and the DC50 was less than 10 nM.
`CC(=O)N1CC[C@H]2CC[C@@H](C(=O)N[C@@H](CCC(N)=O)COc3cccc(CCCC(=O)N4CCC([C@@H](C(=O)N5C[C@H](O)C[C@H]5C(=O)N[C@@H](C)c5ccc(-c6scnc6C)cc5)n5cc(C6CC6)nn5)CC4)c3Cl)N2C(=O)[C@@H](NC(=O)c2cc3cc(C(=O)P(=O)(O)O)ccc3[nH]2)C1` [Compound 37, (2-(((5S,8S,10aR)-3-acetyl-8-(((S)-5-amino-1-(2-chloro-3-(4-(4-((S)-1-(4-cyclopropyl-1H-1,2,3-triazol-1-yl)-2-((2S,4R)-4-hydroxy-2-(((S)-1-(4-(4-methylthiazol-5-yl)phenyl)ethyl)carbamoyl)pyrrolidin-1-yl)-2-oxoethyl)piperidin-1-yl)-4-oxobutyl)phenoxy)-5-oxopentan-2-yl)carbamoyl)-6-oxodecahydropyrrolo[1,2-a][1,5]diazocin-5-yl)carbamoyl)-1H-indole-5-carbonyl)phosphonic acid] gave an IC50 in assay [1] greater than 1000 nM. In addition, the IC50 in assay [2] is 10 to 100 nM. In assay [3], the Dmax at 1 µM fell in the range of 60 to 80% and the DC50 lay in the range of 100 to 1000 nM.
